Structures are written as SMILES. Bounds are passed on as bounds.

In the first test the test system is HCV replicon. Briefly: Cell-Based HCV Replicon Assay. The note with it: Hepatitis C virus; HCV Replicon assay, EC90 given as numeric bound, Table VI; read-out: EC90. The essentials: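 Replicon cells, 5000/well, treated 3 days with 10 serial 2-fold dilutions (top 25 μM to 1 μM) in 0.5% DMSO, 10% FBS. Replicon RNA measured by multiplex Taqman RT-PCR (NS5B amplicon, GAPDH control); EC50/EC90 = concentration giving ΔCT of 1/3.2 over baseline from sigmoid fit.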
Background: Replicon systems follow genome replication, usually without infectious particles.
For the molecule `Cc1nc(NC2(CS(=O)(=O)C(C)(C)C)CCCCC2)nc(N[C@@H]2C[C@H](C(C)(C)O)[C@@H](O)[C@H]2O)c1-c1nc2c(C)nccc2s1` [Example 5197], the EC90 – broadly, the concentration at which the effect reaches the 90% level – was more than 1000 nM.

With `COCC1(Nc2nc(C)c(-c3nc4c(C)nccc4s3)c(N[C@@H]3C[C@H](C(C)(C)O)[C@@H](O)[C@H]3O)n2)CCCCC1` [Example 5198], the EC90 was more than 1000 nM.

On to `COCCNc1nc(C)c(-c2nc3c(C)nccc3s2)c(N2C[C@H]3C[C@@H]2[C@H](O)[C@@H]3O)n1` [Example 5214], for which the concentration for an effect of 90% (EC90) is more than 1000 nM.

Still in this test, the particulars now being: Hepatitis C virus; HCV Replicon assay, EC90 range, Table VI; read-out: EC90.
For `Cc1nc(NCC(C)(C)C)nc(N[C@@H]2C[C@H](C(F)F)[C@@H](O)[C@H]2O)c1-c1nc2c(C3CC3)nccc2s1` [Example 5181], the EC90 is less than 500 nM.

In the case of `Cc1nc(NCC2CC(F)(F)C2)nc(N[C@@H]2C[C@H](C(F)F)[C@@H](O)[C@H]2O)c1-c1nc2c(C3CC3)nccc2s1` [Example 5182], the EC90 is less than 500 nM.

Take `Cc1nc(NCC2CCC2)nc(N[C@@H]2C[C@H](C(C)(F)F)[C@@H](O)[C@H]2O)c1-c1nc2c(C3CC3)nccc2s1` [Example 5183]: the concentration for an effect of 90% (EC90) is less than 500 nM.

For the molecule `Cc1nc(N[C@H](C)C2CCC2)nc(N[C@@H]2C[C@H](C(C)(F)F)[C@@H](O)[C@H]2O)c1-c1nc2c(C3CC3)nccc2s1` [Example 5184], the concentration for an effect of 90% (EC90) is less than 500 nM.

For `Cc1nc(NCC2CCC2)nc(N[C@@H]2C[C@H](C(F)F)[C@@H](O)[C@H]2O)c1-c1nc2c(C3CC3)nccc2s1` [Example 5185], the EC90 was less than 500 nM.

Consider `Cc1nc(N[C@H](C)C2CCC2)nc(N[C@@H]2C[C@H](C(F)F)[C@@H](O)[C@H]2O)c1-c1nc2c(C3CC3)nccc2s1` [Example 5186], for which the EC90 was less than 500 nM.

As to `COc1nc(C)c(-c2nc3c(C4CC4)nccc3s2)c(N[C@@H]2C[C@H](C(C)(F)F)[C@@H](O)[C@H]2O)n1` [Example 5187], the EC90 was in the range of 5000 to 25000 nM.

Regarding `Cc1nc(N)nc(N[C@@H]2C[C@H](C(C)(F)F)[C@@H](O)[C@H]2O)c1-c1nc2c(C3CC3)nccc2s1` [Example 5188], the EC90 was less than 500 nM.

In the case of `C#CCCNc1nc(C)c(-c2nc3c(C4CC4)nccc3s2)c(N[C@@H]2C[C@H](C(C)(F)F)[C@@H](O)[C@H]2O)n1` [Example 5189], the concentration for an effect of 90% (EC90) is less than 500 nM.

As for `Cc1nc(N)nc(N[C@@H]2C[C@H](C(F)F)[C@@H](O)[C@H]2O)c1-c1nc2c(C3CC3)nccc2s1` [Example 5190], the EC90 is less than 500 nM.

In the case of `Cc1nc(NCC2(C)CC2)nc(N[C@@H]2C[C@H](C(F)F)[C@@H](O)[C@H]2O)c1-c1nc2c(C3CC3)nccc2s1` [Example 5191], the concentration for an effect of 90% (EC90) was less than 500 nM.

Turning to `Cc1nc(NCCC2CC2)nc(N[C@@H]2C[C@H](C(F)F)[C@@H](O)[C@H]2O)c1-c1nc2c(C3CC3)nccc2s1` [Example 5192], the 90% effect concentration (EC90) was less than 500 nM.

Turning to `Cc1nc(NCCC(C)C)nc(N[C@@H]2C[C@H](C(F)F)[C@@H](O)[C@H]2O)c1-c1nc2c(C3CC3)nccc2s1` [Example 5193], the EC90 is less than 500 nM.

Turning to `CSCCNc1nc(C)c(-c2nc3c(C4CC4)nccc3s2)c(N[C@@H]2C[C@H](C(F)F)[C@@H](O)[C@H]2O)n1` [Example 5194], the EC90 was less than 500 nM.

For the molecule `COC1(CNc2nc(C)c(-c3nc4c(C)nccc4s3)c(N[C@@H]3C[C@H](C(C)(C)O)[C@@H](O)[C@H]3O)n2)CCCCC1` [Example 5195], the EC90 was less than 500 nM.

In the case of `CCC(CNc1nc(C)c(-c2nc3c(C)nccc3s2)c(N[C@@H]2C[C@H](C(C)(C)O)[C@@H](O)[C@H]2O)n1)OC` (stereo partly drawn) [Example 5196], the EC90 is less than 500 nM.

Turning to `Cc1nc(NCC2CC2)nc(NC2(CO)CCCCC2)c1-c1nc2c(C)nccc2s1` [Example 5199], the EC90 is less than 500 nM.

Regarding `COCCNc1nc(C)c(-c2nc3c(C)nccc3s2)c(NC2(CO)CCCCC2)n1` [Example 5200], the concentration for an effect of 90% (EC90) is less than 500 nM.

Regarding `COCC1(Nc2nc(NCC3CC3)nc(C)c2-c2nc3c(C)nccc3s2)CCCCC1` [Example 5201], the 90% effect concentration (EC90) was less than 500 nM.

`Cc1nc(NC(=N)NCC2CC2)nc(N[C@@H]2C[C@H](C(C)(C)O)[C@@H](O)[C@H]2O)c1-c1nc2c(C)nccc2s1` [Example 5202]: the EC90 was more than 25000 nM.

With `Cc1nc(N[C@H](C)c2c(F)c(F)c(C)c(F)c2F)nc(N[C@@H]2C[C@H](CS(=O)(=O)c3ccc(F)cc3)[C@@H](O)[C@H]2O)c1-c1nc2c(C3CC3)nccc2s1` [Example 5203], the EC90 was in the range of 500 to 5000 nM.

For the molecule `Cc1nc(N[C@H](C)c2c(F)c(F)c(C)c(F)c2F)nc(N[C@@H]2C[C@H](C(C)(C)O)[C@@H](O)[C@H]2O)c1-c1nc2c(C)nccc2s1` [Example 5204], the EC90 was less than 500 nM.

Turning to `Cc1nc(N[C@H](C)c2c(F)c(F)c(C)c(F)c2F)nc(N[C@@H]2C[C@H](CS(C)(=O)=O)[C@@H](O)[C@H]2O)c1-c1nc2c(C3CC3)nccc2s1` [Example 5205], the EC90 was less than 500 nM.

For the molecule `Cc1nc(NCc2c(F)cccc2F)nc(N[C@@H]2C[C@H](COc3c(F)cccc3F)[C@@H](O)[C@H]2O)c1-c1nc2c(C)nccc2s1` [Example 5206], the EC90 was less than 500 nM.

Consider `Cc1nc(N[C@H](C)C2CC2)nc(N[C@@H]2C[C@H](COc3c(F)cccc3F)[C@@H](O)[C@H]2O)c1-c1nc2c(C)nccc2s1` [Example 5207], for which the 90% effect concentration (EC90) was less than 500 nM.

Consider `Cc1nc(NCCCOCC(F)(F)F)nc(N[C@@H]2C[C@H](C(C)(C)O)[C@@H](O)[C@H]2O)c1-c1nc2c(C)nccc2s1` [Example 5208], for which the EC90 is less than 500 nM.

As for `Cc1nc(NCc2c(F)cccc2F)nc(N[C@@H]2C[C@H](CS(=O)(=O)c3cc(F)cc(F)c3)[C@@H](O)[C@H]2O)c1-c1nc2c(N)nccc2s1` [Example 5209], the 90% effect concentration (EC90) is less than 500 nM.

Consider `Cc1nc(NCC(F)(F)C(F)(F)C(F)(F)F)nc(N[C@@H]2C[C@H](C(C)(C)O)[C@@H](O)[C@H]2O)c1-c1nc2c(N)nccc2s1` [Example 5210], for which the concentration for an effect of 90% (EC90) was less than 500 nM.

Consider `Cc1nc(N)nc(N[C@@H]2C[C@H](CS(=O)(=O)c3cc(F)cc(F)c3)[C@@H](O)[C@H]2O)c1-c1nc2c(N)nccc2s1` [Example 5211], for which the EC90 is less than 500 nM.

Take `Cc1nc(N)nc(N[C@@H]2C[C@H](COc3c(F)cccc3F)[C@@H](O)[C@H]2O)c1-c1nc2c(C)nccc2s1` [Example 5212]: the EC90 is less than 500 nM.

For the molecule `Cc1nc(NCC(F)(F)C(F)(F)F)nc(N[C@@H]2C[C@H](COc3c(F)cccc3F)[C@@H](O)[C@H]2O)c1-c1nc2c(C)nccc2s1` [Example 5213], the 90% effect concentration (EC90) was less than 500 nM.

Take `COCCNc1nc(C)c(-c2nc3c(C)nccc3s2)c(NC2(C)CCC2)n1` [Example 5215]: the 90% effect concentration (EC90) is less than 500 nM.

Take `Cc1nc(NCc2c(F)cccc2F)nc(NC2(C)CCC2)c1-c1nc2c(C)nccc2s1` [Example 5216]: the 90% effect concentration (EC90) is less than 500 nM.

As to `CO[C@H]1COC[C@@H]1Nc1nc(C)c(-c2nc3c(C)nccc3s2)c(N[C@@H]2C[C@H](C(C)(C)O)[C@@H](O)[C@H]2O)n1` [Example 5218], the concentration for an effect of 90% (EC90) is less than 500 nM.

Take `Cc1nc(NCCO)nc(NC2(C)CCC2)c1-c1nc2c(C)nccc2s1` [Example 5219]: the concentration for an effect of 90% (EC90) was less than 500 nM.

Regarding `Cc1nc(NCC(F)(F)C(F)(F)F)nc(NC2(C)CCC2)c1-c1nc2c(C)nccc2s1` [Example 5220], the EC90 lay within 500 to 5000 nM.

In the case of `Cc1nc(NCC(C)(F)F)nc(N[C@@H]2C[C@H](C(C)(C)O)[C@@H](O)[C@H]2O)c1-c1nc2c(C)nccc2s1` [Example 5221], the EC90 was less than 500 nM.

For `Cc1nc(NCC2(O)CCCC2)nc(NC2(C)CCC2)c1-c1nc2c(C)nccc2s1` [Example 5222], the EC90 is less than 500 nM.

`Cc1nc(NCC(F)(F)C(F)(F)F)nc(N[C@@H]2C[C@H](CS(C)(=O)=O)[C@@H](O)[C@H]2O)c1-c1nc2c(C3CC3)nccc2s1` [Example 5223]: the EC90 was less than 500 nM.

For the molecule `Cc1nc(NCC(F)(F)C(F)(F)F)nc(N[C@@H]2C[C@H](CO)[C@@H](O)[C@H]2O)c1-c1nc2c(C3CC3)nccc2s1` [Example 5224], the concentration for an effect of 90% (EC90) was less than 500 nM.

Regarding `Cc1nc(NCC(F)(F)C(F)(F)F)nc(N[C@@H]2C[C@H](CS(=O)(=O)c3ccc(F)cc3)[C@@H](O)[C@H]2O)c1-c1nc2c(C3CC3)nccc2s1` [Example 5225], the EC90 was less than 500 nM.

Turning to `CO[C@@H](CNc1nc(C)c(-c2nc3c(C)nccc3s2)c(N[C@@H]2C[C@H](CO)[C@@H](O)[C@H]2O)n1)c1ccc(F)cc1` [Example 5226], the EC90 is less than 500 nM.

Regarding `CO[C@@H](CNc1nc(C)c(-c2nc3c(C4CC4)nccc3s2)c(N[C@@H]2C[C@H](CO)[C@@H](O)[C@H]2O)n1)c1ccc(F)cc1` [Example 5227], the EC90 was less than 500 nM.

As to `CO[C@@H](CNc1nc(C)c(-c2nc3cnccc3s2)c(N[C@@H]2C[C@H](C(C)(C)O)[C@@H](O)[C@H]2O)n1)c1ccc(F)cc1` [Example 5228], the 90% effect concentration (EC90) is less than 500 nM.

For the molecule `CO[C@@H](CNc1nc(C)c(-c2nc3c(C)nccc3s2)c(N[C@@H]2C[C@H](C(C)(C)O)[C@@H](O)[C@H]2O)n1)c1ccc(F)cc1` [Example 5229], the EC90 was less than 500 nM.

With `CO[C@@H](CNc1nc(C)c(-c2nc3c(C)nccc3s2)c(N[C@@H]2C[C@H](CO)[C@@H](O)[C@H]2O)n1)C(F)(F)F` [Example 5230], the EC90 is less than 500 nM.

In the case of `CO[C@@H](CNc1nc(C)c(-c2nc3c(C4CC4)nccc3s2)c(N[C@@H]2C[C@H](CO)[C@@H](O)[C@H]2O)n1)C(F)(F)F` [Example 5231], the EC90 was less than 500 nM.

Consider `CO[C@@H](CNc1nc(C)c(-c2nc3c(C)nccc3s2)c(N[C@@H]2C[C@H](C(C)(C)O)[C@@H](O)[C@H]2O)n1)C(F)(F)F` [Example 5232], for which the EC90 was less than 500 nM.

For `CCO[C@@H](CNc1nc(C)c(-c2nc3c(C)nccc3s2)c(N[C@@H]2C[C@H](CO)[C@@H](O)[C@H]2O)n1)C(F)(F)F` [Example 5233], the EC90 is less than 500 nM.

As for `CCO[C@@H](CNc1nc(C)c(-c2nc3c(C4CC4)nccc3s2)c(N[C@@H]2C[C@H](CO)[C@@H](O)[C@H]2O)n1)C(F)(F)F` [Example 5234], the EC90 was less than 500 nM.

As to `CCO[C@@H](CNc1nc(C)c(-c2nc3c(C)nccc3s2)c(N[C@@H]2C[C@H](C(C)(C)O)[C@@H](O)[C@H]2O)n1)C(F)(F)F` [Example 5235], the concentration for an effect of 90% (EC90) was less than 500 nM.

(Values after patent US9433621B2, “Substituted pyridine and pyrimidine derivatives and their use in treating viral infections” (Merck Sharp & Dohme Corp., priority 2010, dated 2016).)
